Values of other authors as cited in PMC4191920 (Journal of molecular biology, 2014).

System: fibril formation
Settings: at pH 7.4

[Nα-methyl-β-Ala26]Aβ42
effect on fibril formation: inhibit fibril formation
